Values quoted from earlier work, collected in patent US11261215B2, “Somatostatin prodrugs” (YISSUM RESEARCH DEVELOPMENT COMPANY OF THE HEBREW …, priority 2017, dated 2022).
Numbered stars: 1 amine (or outer) side, 2 acyl side, 3 side chain; on linkers, the order of the positions; unused ones are H or OH. Bridge positions count the residues as written; N and C are the ends. Square brackets hold non-standard residues; d marks the D form. Ends that are not written are not given here. PheC3 = Phe building unit, N-alpha-omega-functionalized derivative for backbone cyclization; N(2-aminoethyl)Phe = O=C([C@H](Cc1ccccc1)N(CCN[*:3])[*:1])[*:2]; dNMeW = CN[C@H](Cc1c[nH]c2ccccc12)C(=O)O; NMeF = CN[C@@H](Cc1ccccc1)C(=O)O; NMeK = CN[C@@H](CCCCN)C(=O)O

Tests used:
[1] = tested on: somatostatin receptors; details: cited from earlier work
[2] = rats, oral administration; cited from earlier work
[3] = tested on: GH, glucagon and insulin secretion; details: cited from earlier work
[4] = molecular target: SSTR5 (Homo sapiens, UniProt P35346); details: cited from earlier work
[5] = tested on: amylase and lipase release from the pancreas; details: in vivo; cited from earlier work

SSTR5, sequence (P35346 whole entry, species assumed): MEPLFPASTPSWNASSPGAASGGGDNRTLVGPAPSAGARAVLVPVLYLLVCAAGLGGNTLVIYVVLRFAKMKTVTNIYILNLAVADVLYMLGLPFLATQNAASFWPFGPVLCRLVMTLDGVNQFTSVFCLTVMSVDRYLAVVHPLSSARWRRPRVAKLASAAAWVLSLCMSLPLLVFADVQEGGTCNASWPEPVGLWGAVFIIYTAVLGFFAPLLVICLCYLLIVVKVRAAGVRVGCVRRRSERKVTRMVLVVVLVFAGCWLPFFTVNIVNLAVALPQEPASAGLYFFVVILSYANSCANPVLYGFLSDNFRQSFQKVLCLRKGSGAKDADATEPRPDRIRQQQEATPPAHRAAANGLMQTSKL

PheC3-Cys-Phe-DTrp-Lys-Thr-Cys-Phe-PheN3-X (FCFWKTCFF; not fully specified; backbone cyclized; MOD_RES (1)..(1) PheC3 building unit; MOD_RES (1)..(9) backbone cyclization between the N-alpha-omega- functionalized derivative of X1 and the N-alpha-omega- functionalized derivative of X9; DISULFID (2)..(7) bridge; MOD_RES (4)..(4) D-Trp; MOD_RES (9)..(9) PheN3 building unit; MOD_RES (9)..(9) AMIDATION) [PTR-3205]
selectivity toward the somatostatin receptors [1]: selective towards SSTR2

c(PF(NMe)w(NMe)KT(NMe)F) (cyclo(PF[dNMeW][NMeK]T[NMeF]); SMILES C[C@@H](O)[C@@H]1NC(=O)[C@H](CCCCN)N(C)C(=O)[C@@H](Cc2c[nH]c3ccccc23)N(C)C(=O)[C@H](Cc2ccccc2)NC(=O)[C@@H]2CCCN2C(=O)[C@H](Cc2ccccc2)N(C)C1=O) [Somato8]
calculated absolute oral bioavailability [2]: ~10%

PheN2-Tyr-DTrp-Lys-Val-PheC3-Thr-NH2 ([N(2-aminoethyl)Phe]Y[dW]KV[PheC3]T-NH2; bridge 1-6; not fully specified (bridges); printed as PheN2-Tyr-DTrp-Lys-Val-PheC3-Thr-NH2) [PTR-3046]
GH or glucagon release ([3]; in vivo): without inhibiting
selectivity toward the somatostatin receptors [1]: selective toward the SSTR5
IC50 [4]: nanomolar range
bombesin- and caerulein-induced amylase and lipase release from the pancreas [5]: inhibits

GABA-Phe-Trp-DTrp-Lys-Thr-Phe-GlyC3-NH2 (XFWWKTFG; not fully specified; GABA, backbone cyclized, C-terminal amide; MOD_RES (1)..(1) 4Abu, GABA; MOD_RES (1)..(8) backbone-to-end cyclization between the N-alpha-omega-functionalized derivative of GlyC3 and the N-terminus; MOD_RES (4)..(4) D-Trp; MOD_RES (8)..(8) AMIDATION; MOD_RES (8)..(8) GlyC3 building unit) [PTR-3173]
effect on insulin secretion ([3]; at physiological concentrations): no effect
GH:insulin potency ratio ([3]; in vivo): > 10,000
potency in the in vivo inhibition of GH relative to that of glucagon ([3]; in vivo): 1000 fold
selectivity toward the somatostatin receptors [1]: selective towards the SSTR2, SSTR4 and SSTR5
